From ChEMBL document CHEMBL3886673, “Tetracyclic CDK9 kinase inhibitors” (2016)

Each compound was assayed against Cyclin-dependent kinase 9 (Homo sapiens, UniProt P50750) (assay: LANCE ULight TR-FRET Kinase Assay : CDK9 enzyme activities were measured using LANCE ULight TR-FRET kinase assay reagents (PerkinElmer, Waltham, Mass.). Compounds were diluted in 100% DMSO then diluted with 1:10 in serine/threonine kinase assay buffer containing 20 mM HEPES, 10 mM MgCl2, […], and 0.0075% Triton X-100. Equal volume of the compound dilutions was added to a final reaction mixture containing LANCE detection buffer (PerkinElmer CR97-100), 100 nM ULight MBP (PerkinElmer TRF0109M), 1000 μM ATP, and CDK9/Cyclin T1 (Carna Biosciences 04-110). The kinase reaction was carried out for 1 hour before addition of stopping buffer to a final of 20 mM EDTA and 0.5 nM of LANCE Ultra Europium anti-phospho-MBP antibody (PerkinElmer TRF0201M) in LANCE detection buffer. The reaction was incubated for 1 hour and the signal was read in Envision in TR-FRET mode (excitation at 320 nm and emission at 615/665 nm).).
Sequence of Cyclin-dependent kinase 9 (P50750 whole entry): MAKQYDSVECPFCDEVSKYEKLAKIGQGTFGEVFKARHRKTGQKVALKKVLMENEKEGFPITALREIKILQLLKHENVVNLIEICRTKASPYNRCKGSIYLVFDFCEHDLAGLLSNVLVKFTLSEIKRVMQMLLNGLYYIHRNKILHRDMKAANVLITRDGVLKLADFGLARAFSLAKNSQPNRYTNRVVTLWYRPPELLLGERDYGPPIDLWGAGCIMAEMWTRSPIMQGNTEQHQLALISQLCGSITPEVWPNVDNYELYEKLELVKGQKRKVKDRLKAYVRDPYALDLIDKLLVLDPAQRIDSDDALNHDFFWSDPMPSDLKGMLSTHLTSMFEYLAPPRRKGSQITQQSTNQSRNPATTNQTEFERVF

Row | Structure (SMILES) | IC50
1 | CN(CCO)C(=O)CN1CC=C(c2[nH]c3ncc(F)c4c3c2CN(C)c2ccc(F)cc2-4)CC1 | 100 nM
2 | CN1Cc2c(C3=CCN(C(=O)OC(C)(C)C)CC3)[nH]c3nccc(c23)-c2cc(F)ccc21 | 230 nM
3 | CNC(=O)N1CC=C(c2[nH]c3nccc4c3c2CN(C)c2ccc(F)cc2-4)CC1 | 30 nM
4 | CN1Cc2c(C3=CCN(S(C)(=O)=O)CC3)[nH]c3ncc(F)c(c23)-c2cc(F)ccc21 | 38 nM
